Experimental data taken from ChEMBL document CHEMBL3885861, “Open TG-GATES”.

Species: Rattus norvegicus
Assay: Open TG-GATES - Regimen: Single
Type: toxicity, organism-based, Sprague-Dawley
Set-up: regimen Single, gender Male, age 6 weeks
Details: in vivo, po, 60 mg/kg, route gavage, dose level Low; for APTT / Bas / Eos / Fbg / Hb / Ht / Lym / MCH / MCHC / MCV / Mono / Neu / PT / Plat / RBC / Ret / WBC: tissue Blood; for KIDNEY_L / KIDNEY_R / KIDNEY_TOTAL: tissue Kidney; for LIVER: tissue Liver; for A/G / ALP / ALT / AST / BUN / CRE / Ca / Cl / DBIL / GLC / IP / K / LDH / Na / PL / RALB / TBIL / TC / TG / TP / gamma-GTP: tissue Plasma

CCOC(=O)[C@H](CCc1ccccc1)N[C@@H](C)C(=O)N1CCC[C@H]1C(=O)O
TERMINAL_BW (3 h): 218.9 g | APTT (3 h): 15.9 s | Bas (3 h): 0% | Eos (3 h): 1% | Fbg (3 h): 216 mg/dL | Hb (3 h): 13.2 g/dL | Ht (3 h): 40.3% | Lym (3 h): 75.6% | MCH (3 h): 21.3 pg | MCHC (3 h): 32.8% | MCV (3 h): 64.7 fL | Mono (3 h): 9.4% | Neu (3 h): 14% | PT (3 h): 12 s | Plat (3 h): 113.1 x10_4/uL | RBC (3 h): 622.2 x10_4/ul | Ret (3 h): 8.4% | WBC (3 h): 113.3 x10_2/uL | KIDNEY_L (3 h): 0.9 g | KIDNEY_R (3 h): 0.9 g | KIDNEY_TOTAL (3 h): 1.9 g | LIVER (3 h): 10.3 g | A/G (3 h): 1.9 | ALP (3 h): 851.2 IU/L | ALT (3 h): 38.6 IU/L | AST (3 h): 65.6 IU/L | BUN (3 h): 18.2 mg/dL | CRE (3 h): 0.5 mg/dL | Ca (3 h): 11 mg/dL | Cl (3 h): 106 meq/L | DBIL (3 h): 0.018 mg/dL | GLC (3 h): 203.8 mg/dL | IP (3 h): 9.8 mg/dL | K (3 h): 5.3 meq/L | LDH (3 h): 85 IU/L | Na (3 h): 138.8 meq/L | PL (3 h): 142.2 mg/dL | RALB (3 h): 3.4 g/dL | TBIL (3 h): 0.3 mg/dL | TC (3 h): 84 mg/dL | TG (3 h): 52.2 mg/dL | TP (3 h): 5.3 g/dL | gamma-GTP (3 h): 1.8 IU/L | TERMINAL_BW (6 h): 221.6 g | APTT (6 h): 15.7 s | Bas (6 h): 0% | Eos (6 h): 1% | Fbg (6 h): 200 mg/dL | Hb (6 h): 13.1 g/dL | Ht (6 h): 39.2% | Lym (6 h): 79.8% | MCH (6 h): 21.7 pg | MCHC (6 h): 33.3% | MCV (6 h): 65.2 fL | Mono (6 h): 5.2% | Neu (6 h): 14.6% | PT (6 h): 12 s | Plat (6 h): 110.6 x10_4/uL | RBC (6 h): 602.6 x10_4/ul | Ret (6 h): 9.2% | WBC (6 h): 122.1 x10_2/uL | KIDNEY_L (6 h): 1 g | KIDNEY_R (6 h): 1 g | KIDNEY_TOTAL (6 h): 2 g | LIVER (6 h): 9.9 g | A/G (6 h): 2.2 | ALP (6 h): 728.2 IU/L | ALT (6 h): 36.2 IU/L | AST (6 h): 60.4 IU/L | BUN (6 h): 22 mg/dL | CRE (6 h): 0.5 mg/dL | Ca (6 h): 11.1 mg/dL | Cl (6 h): 104.8 meq/L | DBIL (6 h): 0.054 mg/dL | GLC (6 h): 196 mg/dL | IP (6 h): 10.9 mg/dL | K (6 h): 4.9 meq/L | LDH (6 h): 85.2 IU/L | Na (6 h): 139.4 meq/L | PL (6 h): 136 mg/dL | RALB (6 h): 3.6 g/dL | TBIL (6 h): 0.5 mg/dL | TC (6 h): 78.2 mg/dL | TG (6 h): 44.4 mg/dL | TP (6 h): 5.3 g/dL | gamma-GTP (6 h): 1.4 IU/L | TERMINAL_BW (9 h): 216 g | APTT (9 h): 16.1 s | Bas (9 h): 0% | Eos (9 h): 1.2% | Fbg (9 h): 195 mg/dL | Hb (9 h): 12.7 g/dL | Ht (9 h): 39.1% | Lym (9 h): 77% | MCH (9 h): 21.6 pg | MCHC (9 h): 32.6% | MCV (9 h): 66.3 fL | Mono (9 h): 4.4% | Neu (9 h): 17% | PT (9 h): 11.7 s | Plat (9 h): 111.5 x10_4/uL | RBC (9 h): 590 x10_4/ul | Ret (9 h): 8.6% | WBC (9 h): 87.4 x10_2/uL | KIDNEY_L (9 h): 1 g | KIDNEY_R (9 h): 1 g | KIDNEY_TOTAL (9 h): 2 g | LIVER (9 h): 9.2 g | A/G (9 h): 1.9 | ALP (9 h): 839.6 IU/L | ALT (9 h): 33.2 IU/L | AST (9 h): 69 IU/L | BUN (9 h): 20.2 mg/dL | CRE (9 h): 0.4 mg/dL | Ca (9 h): 10.6 mg/dL | Cl (9 h): 107 meq/L | DBIL (9 h): 0.02 mg/dL | GLC (9 h): 193.4 mg/dL | IP (9 h): 11 mg/dL | K (9 h): 5.1 meq/L | LDH (9 h): 89.4 IU/L | Na (9 h): 138.4 meq/L | PL (9 h): 122.2 mg/dL | RALB (9 h): 3.5 g/dL | TBIL (9 h): 0.4 mg/dL | TC (9 h): 66.8 mg/dL | TG (9 h): 57 mg/dL | TP (9 h): 5.3 g/dL | gamma-GTP (9 h): 1.6 IU/L | TERMINAL_BW (24 h): 228.5 g | APTT (24 h): 16.3 s | Bas (24 h): 0% | Eos (24 h): 1.4% | Fbg (24 h): 220 mg/dL | Hb (24 h): 12.9 g/dL | Ht (24 h): 39.1% | Lym (24 h): 79.6% | MCH (24 h): 21.5 pg | MCHC (24 h): 33.2% | MCV (24 h): 65 fL | Mono (24 h): 5.4% | Neu (24 h): 14% | PT (24 h): 11 s | Plat (24 h): 114.8 x10_4/uL | RBC (24 h): 602.4 x10_4/ul | Ret (24 h): 8.9% | WBC (24 h): 88.3 x10_2/uL | KIDNEY_L (24 h): 1 g | KIDNEY_R (24 h): 1 g | KIDNEY_TOTAL (24 h): 2.1 g | LIVER (24 h): 11.3 g | A/G (24 h): 2.1 | ALP (24 h): 986.4 IU/L | ALT (24 h): 39.2 IU/L | AST (24 h): 61.4 IU/L | BUN (24 h): 16.8 mg/dL | CRE (24 h): 0.5 mg/dL | Ca (24 h): 11.1 mg/dL | Cl (24 h): 104.6 meq/L | DBIL (24 h): 0.006 mg/dL | GLC (24 h): 202.4 mg/dL | IP (24 h): 8.6 mg/dL | K (24 h): 5.4 meq/L | LDH (24 h): 110.4 IU/L | Na (24 h): 138.6 meq/L | PL (24 h): 157.2 mg/dL | RALB (24 h): 3.9 g/dL | TBIL (24 h): 0.4 mg/dL | TC (24 h): 89.4 mg/dL | TG (24 h): 94.6 mg/dL | TP (24 h): 5.8 g/dL | gamma-GTP (24 h): 1.8 IU/L
